Reference: BindingDB's records for doi:10.1016/j.chembiol.2007.03.013 (Portland State University, 2007)

What was measured:
[1] = biological target: T1, 3-oxoacyl-[acyl-carrier-protein] synthase 3 (Mycobacterium tuberculosis (strain CDC 1551 / Oshkosh), UniProt P9WNG2); test: FabH Enzyme Assay; settings: pH 7; 37 °C
T1 sequence (P9WNG2 whole entry): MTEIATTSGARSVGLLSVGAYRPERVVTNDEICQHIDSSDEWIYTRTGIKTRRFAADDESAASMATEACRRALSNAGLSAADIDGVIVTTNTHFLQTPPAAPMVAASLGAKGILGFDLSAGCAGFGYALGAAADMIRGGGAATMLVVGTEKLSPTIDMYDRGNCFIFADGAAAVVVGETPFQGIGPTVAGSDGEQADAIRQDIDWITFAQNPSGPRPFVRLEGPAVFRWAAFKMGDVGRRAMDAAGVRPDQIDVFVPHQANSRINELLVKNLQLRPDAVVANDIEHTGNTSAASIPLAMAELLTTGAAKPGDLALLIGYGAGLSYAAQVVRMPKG
Protocol: (§1) Escherichia coli FabH assays were carried out using standard coupled trichloroacetic acid precipitation assay to determine the rate formation of radiolabeled 3-ketoacyl-ACP from malonyl-ACP. Mycobacterium tuberculosis FabH assay was done by sustituting malonyl-CoA for MACP.

[2] = biological target: T2, 3-oxoacyl-[acyl-carrier-protein] synthase 3 (Escherichia coli, UniProt C3TDZ2); test: FabH Enzyme Assay; settings: pH 7; 37 °C
T2 sequence (C3TDZ2 whole entry): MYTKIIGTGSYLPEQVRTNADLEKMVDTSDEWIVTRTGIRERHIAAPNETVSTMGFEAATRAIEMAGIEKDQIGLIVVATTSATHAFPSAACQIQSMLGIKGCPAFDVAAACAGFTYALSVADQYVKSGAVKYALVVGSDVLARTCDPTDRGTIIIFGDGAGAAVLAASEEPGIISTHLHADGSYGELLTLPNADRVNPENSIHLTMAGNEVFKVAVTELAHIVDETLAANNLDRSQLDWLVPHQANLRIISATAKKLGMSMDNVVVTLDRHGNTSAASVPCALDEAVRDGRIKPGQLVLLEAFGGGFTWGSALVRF
Protocol: as §1

| Structure (SMILES) | IC50 [1] | IC50 [2] |
| --- | --- | --- |
| CCCCSSCCNC(=O)CCNC(=O)C(O)C(C)(C)OP(=O)(O)OP(=O)(O)OCC1OC(n2cnc3c(N)ncnc32)C(O)C1OP(=O)(O)O (stereo not drawn) [Butyl-CoA disulfide 2] | > 300 µM | > 300 µM |
| CCCCCCCCCCSSCCNC(=O)CCNC(=O)C(O)C(C)(C)OP(=O)(O)OP(=O)(O)OCC1OC(n2cnc3c(N)ncnc32)C(O)C1OP(=O)(O)O (stereo not drawn) [Decyl-CoA disulfide 5] | 1.2 µM | > 300 µM |
| CSSCCNC(=O)CCNC(=O)C(O)C(C)(C)OP(=O)(O)OP(=O)(O)OCC1OC(n2cnc3c(N)ncnc32)C(O)C1OP(=O)(O)O (stereo not drawn) [Methyl-CoA disulfide 1] | > 300 µM | 57.1 µM |
| CCCCCCCCSSCCNC(=O)CCNC(=O)C(O)C(C)(C)OP(=O)(O)OP(=O)(O)OCC1OC(n2cnc3c(N)ncnc32)C(O)C1OP(=O)(O)O (stereo not drawn) [Octyl-CoA disulfide 4] | 30.1 µM | > 300 µM |
